The test system of assay [1] is short-term antigen-specific T cell lines generated from PBMCs. On the set-up: key: +: ELISPOT: Immungenicity of the peptide shown by IFN-gamma ELISPOT analysis. Conditions: immunogenicity by IFN-gamma ELISPOT, * data from published resources, cited from earlier work.
The subject of assay [2] is HPV16-positive cells. The assay can be described thus: HLA immunoprecipitation and LC-MS of peptides presented by HPV16-positive cells. It counts as cell-based, human. On the set-up: key: +: presentation: HLA-presentation of the peptide by HPV16-positive cells shown by MS. Conditions: HLA-presentation by HPV16-positive cells shown by MS. The procedure:
HLA immunoprecipitation (IP) was performed according to previously published protocols (Bassani-Sternberg et al., 2016; Chong et al., 2018). Briefly, HPV16+ cells were lysed with a lysis buffer containing 1% N-octyl-β-D glucopyranoside, 0.25% Na-Deoxycholate, protease inhibitor cocktail (Sigma-Aldrich, Mannheim, Germany)/PMSF (Carl Roth, Karlsruhe, Germany) in PBS. After centrifugation at 40,000×g, 4° C., for 30 min. HLA-peptide complexes were immuno-precipitated by incubation with mouse anti-human HLA-A,B,C monoclonal antibody (clone W6/32, Biolegend, San Diego, CA, USA) or in some cases HLA-type-specific antibody (HLA-A2: clone BB7.2, HLA-A3: clone GAP A3, HLA-A11/A24: clone Hb 164, HLA-B7: clone BB7.1) crosslinked to protein G Sepharose beads (Cytiva, Marlborough, MA, USA) or Protein A—Sepharose™ 4B (Invitrogen Corporation, Camarillo, CA, USA) for 4 h at 4° C. under constant mixing on a rotating wheel. Supernatant was discarded after centrifugation at 3200×g, for 3 min at RT. Pelleted HLA-peptide complexes bound to antibody-beads were washed 3 times in each of the following steps: first with ice-cold 20 mM Tris-HCl pH 8 containing 150 mM NaCl followed by the same buffer but with additional […] and finally with 20 mM Tris-HCl alone. Peptides were eluted from antibody-beads bound to HLA by 0.3% TFA. Resulting peptides were desalted by reverse-phase purification using a SepPak 96-well plate (Waters, Milford, MA, USA). Peptides eluted in 28% ACN in 0.1% TFA were dried by vacuum centrifugation (Concentrator plus, Eppendorf, Hamburg, Germany).
The set of predicted target peptides were acquired as stable isotope labelled (SIL) peptides from commercial suppliers (crude synthesis product; isotope purity >99 atom % ^13C and ^15N). First, analysis by direct infusion was performed in order to optimize normalized collision energy (NCE) for each single peptide in a mixture. NCE values were ranging from 4% to 42% and each value, in 2% steps, was measured 4 times for four charge states (1+ to 4+) of each peptide. Orbitrap Exploris 480 (Thermo Fisher Scientific) in targeted MS2 scan (PRM) was operated using 30K resolution at 200 m/z, standard automated gain control (AGC) target, 350 ms maximum injection time (IT), 1 micro scan in centroid data acquisition mode. For all measurements, isolation window was 0.4, 0.7, 1 or 1.5 m/z, depending on the mass of the precursor, as recommended by the manufacturer. Ion chromatograms of all expected transitions were extracted with 12 ppm mass tolerance from the centroided spectra and deconvoluted using purpose-made R scripts. The best NCE value was selected so that the intensity of any 5th most intense transitions is maximized, thereby maximizing the chance of detecting at least 5 transitions. The retention time (RT) for each peptide was determined by LC-MS in DDA mode with an inclusion list of target peptides in all four charge-states. The MS resolution was set to 120K, 3e6 AGC target, 50 ms maximum IT and the LC operated as described below.
For LC-MS, samples were dissolved in 2.5 to 5 μl of 5% ACN in 0.1% TFA with 50 fmol of Peptide Retention Time Calibration (PRTC) Mixture (88321, Pierce™) spiked in, followed by 3 min bath sonication. All samples were analysed by liquid chromatography (U-3000, Thermo Fisher Scientific) coupled to Orbitrap Exploris 480 (Thermo Fisher Scientific). […]

In assay [3] the test system is HPV16-positive cells. Further details: key: +: presentation: HLA-presentation of the peptide by HPV16-positive cells shown by MS. Conditions: HLA-presentation by HPV16-positive cells shown by MS; * data from published resources; cited from earlier work.
The subject of assay [4] is short-term antigen-specific T cell lines generated from PBMCs. The assay can be described thus: Interferon-γ ELISpot assay on short-term peptide-specific T cell lines from PBMCs. It counts as cell-based, human. Conditions: immunogenicity by IFN-gamma ELISPOT. On the set-up: key: +: ELISPOT: Immungenicity of the peptide shown by IFN-gamma ELISPOT analysis.

Where two headings read alike, the source gives them in different places.

Turning to “1 (ISEYRHYCY; Human papillomavirus 16) [compound 1]”, in assay [1], the ELISpot result is “+*”. The presentation result in the assay on HPV16-positive cells [2] is on record as “+”.
On to “2 (YMLDLQPET; Human papillomavirus 16) [compound 2]”, for which the ELISpot entry in assay [1] was “+*”. The presentation entry in the assay on HPV16-positive cells [3] was “+*”.
For the substance “3 (TTLEQQYNK; Human papillomavirus 16) [compound 3]”, in assay [4], the ELISpot result is listed as “+”. Also, the presentation result in the assay on HPV16-positive cells [2] is reported as “+”.
Take “4 (RAHYNIVTF; Human papillomavirus 16) [compound 4]”: the figures for the ELISpot result in assay [1] (B07) and in assay [4] (B15) were “+*(B07)” and “+(B15)”, respectively. Besides, the presentation entry in the assay with HPV16-positive cells [2] is “+”.
As to “5 (RPRKLPQL; Human papillomavirus 16) [compound 5]”, in assay [4], the ELISpot result is reported as “+”. Besides, the presentation entry in the assay on HPV16-positive cells [2] was “+”.
As for “6 (LQPETTDLY; Human papillomavirus 16) [compound 6]”, the ELISpot result in assay [1] was “+*”. For the same substance, the presentation result in the assay on HPV16-positive cells [2] is reported as “+”.
